From patent US20250122193A1, “NOVEL PYRIDOCARBAZOLIUM COMPOUNDS AND MEDICAL USES THEREOF” (MyCural Therapeutics, priority 2021, published 2025)

Key:
MYCN:MAX interaction = target: T1, MYCN:MAX interaction (Homo sapiens, UniProt P04198); assay: split Gaussia luciferase (GLuc) assay, MYCN:MAX; type: cell-based; settings: 5 μM, HeLa cells
T1 construct: replacing the existing Zip-gene (GCN4) with full length MYC, MYCN or MAX cDNA; expressed in transfected cells; host or cells: HeLa
T1 sequence (P04198 1-464): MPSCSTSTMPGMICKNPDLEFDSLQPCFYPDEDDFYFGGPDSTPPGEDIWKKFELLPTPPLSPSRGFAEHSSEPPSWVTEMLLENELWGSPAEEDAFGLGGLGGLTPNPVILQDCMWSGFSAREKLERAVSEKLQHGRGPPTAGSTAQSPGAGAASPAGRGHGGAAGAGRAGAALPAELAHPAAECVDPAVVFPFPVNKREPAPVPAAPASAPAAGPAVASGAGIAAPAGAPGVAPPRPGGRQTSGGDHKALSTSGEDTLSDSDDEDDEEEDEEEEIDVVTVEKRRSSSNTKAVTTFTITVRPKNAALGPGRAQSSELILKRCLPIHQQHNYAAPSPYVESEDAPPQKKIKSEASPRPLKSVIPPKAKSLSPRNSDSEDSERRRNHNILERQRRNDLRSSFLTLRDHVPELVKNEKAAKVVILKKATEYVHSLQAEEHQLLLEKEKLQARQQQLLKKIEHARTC
Procedure: A) Molecular structure of MYCMI-7. B-E) split Gaussia luciferase (GLuc) assay. MYC or MYCN and MAX Gluc constructs were co-transfected into HeLa cells together with a firefly luciferase vector. 24 hours post transfection cells were treated with compounds, and after another 17-24 hours cells were harvested and both GLuc and firefly luciferase activities were measured. The mean of three different experiments is shown. Treatment with: B) 5 μM of MYCMI-7, 64 μM 10058-F4 or 5 μM JQ1, respectively, C) 6.5 μM MYCMI-7 on cells expressing MYC:MAX GLuc vs. GCN4:GCN4 GLuc, D) 5 μM MYCMI-7 and 5 μM ellipticine. E) 5 μM MYCMI-7 for various time points. F) in situ proximity ligation assay (isPLA). […] MYC:GAL4 was used as negative control in the isPLA assay. G) Quantification of isPLA dots. (H) Co-immunoprecipitation (co-IP) of endogenous MYC and MAX proteins from MCF7 cells after treatment with 5 μM MYCMI-7 at various times. IP=immunoprecipitation; W=western blot. I) Chromatin immunoprecipitation (ChIP) of MYC at the ODC1 target gene promoter after treatment of cells with 5 μM MYCMI-7 for 6 hours. J) MYC target gene ODC1 expression after treatment with 5 μM MYCMI-7, quantified by qPCR. […] L) Recombinant MYC bHLHZip protein domain immobilized onto a CM5 chip was subjected to various concentrations of MYCMI-7 and the complex of MYCbHLHZip-MYCMI-7 was measured as response units by SPR. […]
0.2-0.4 μg of each GLuc-construct together with 0.05 μg pCMV-LUC (firefly luciferase) were used per transfection in 12 well plates. […] After 60 min incubation at room temperature 20 μM D-luciferin was added (substrate of Firefly luciferase) and luminescence was measured in a Lumat LB9501 (Berthold) or OmegaFluostar (BMG Labtech) luminometer. Directly after, Gaussia luciferase substrate Coelenterazine (Promega) was added to a final concentration of 20 μM in a mixture with “Stop n' Glow” (Promega) and the luciferase activity was measured. The ratio between Gaussia and Firefly luciferase values were calculated and normalized to DMSO-treated control cells.

[1] = system: Burkitt's lymphoma cell lines; assay: growth of Burkitt's lymphoma cell lines; type: cell-based
Procedure: Cell culture and transfection: HeLa, MCF7, MDA-MB-231, U20S, HCT116, SK-N-F1, SK-N-RA, SK-N-AS, COS-7, Rat1 fibroblasts (Tgrl, H015.19 and HOMYC3), primary rat embryonic fibroblasts (REFs) were maintained in DMEM and Kelly, IMR-32, SK-N-DZ, P493-6, Daudi, CA46 and Ramos were kept in RPMI. In addition, the medium for H015.19 and primary REFs contained 1% sodium pyruvate. […] U20S-MYC-ER cell lines were cultured in phenol-red free DMEM and treated with 100 nM 4-hydroxytamoxifen (4-OHT) (Sigma-Aldrich) to activate MYC-ER. […] Transfection of HeLa cells was performed using Lipofectamine 2000 reagent (Invitrogen) according to manufacturer's instructions. For transfection of 293-T, U20S and REFs, FuGene6 (ROCHE) was used in accordance with manufacturer's recommendations. The proteasome inhibitor Z-leu-leu-leu-H aldehyde ([…]) (Peptides International) was used at 40 μM concentration.

Recombinant human Top2a = Recombinant human Top2a (Homo sapiens, UniProt P11388); assay: Top2 decatenation assay; type: biochemical; settings: in vitro decatenation of kDNA
Sequence of Recombinant human Top2a (P11388 whole entry): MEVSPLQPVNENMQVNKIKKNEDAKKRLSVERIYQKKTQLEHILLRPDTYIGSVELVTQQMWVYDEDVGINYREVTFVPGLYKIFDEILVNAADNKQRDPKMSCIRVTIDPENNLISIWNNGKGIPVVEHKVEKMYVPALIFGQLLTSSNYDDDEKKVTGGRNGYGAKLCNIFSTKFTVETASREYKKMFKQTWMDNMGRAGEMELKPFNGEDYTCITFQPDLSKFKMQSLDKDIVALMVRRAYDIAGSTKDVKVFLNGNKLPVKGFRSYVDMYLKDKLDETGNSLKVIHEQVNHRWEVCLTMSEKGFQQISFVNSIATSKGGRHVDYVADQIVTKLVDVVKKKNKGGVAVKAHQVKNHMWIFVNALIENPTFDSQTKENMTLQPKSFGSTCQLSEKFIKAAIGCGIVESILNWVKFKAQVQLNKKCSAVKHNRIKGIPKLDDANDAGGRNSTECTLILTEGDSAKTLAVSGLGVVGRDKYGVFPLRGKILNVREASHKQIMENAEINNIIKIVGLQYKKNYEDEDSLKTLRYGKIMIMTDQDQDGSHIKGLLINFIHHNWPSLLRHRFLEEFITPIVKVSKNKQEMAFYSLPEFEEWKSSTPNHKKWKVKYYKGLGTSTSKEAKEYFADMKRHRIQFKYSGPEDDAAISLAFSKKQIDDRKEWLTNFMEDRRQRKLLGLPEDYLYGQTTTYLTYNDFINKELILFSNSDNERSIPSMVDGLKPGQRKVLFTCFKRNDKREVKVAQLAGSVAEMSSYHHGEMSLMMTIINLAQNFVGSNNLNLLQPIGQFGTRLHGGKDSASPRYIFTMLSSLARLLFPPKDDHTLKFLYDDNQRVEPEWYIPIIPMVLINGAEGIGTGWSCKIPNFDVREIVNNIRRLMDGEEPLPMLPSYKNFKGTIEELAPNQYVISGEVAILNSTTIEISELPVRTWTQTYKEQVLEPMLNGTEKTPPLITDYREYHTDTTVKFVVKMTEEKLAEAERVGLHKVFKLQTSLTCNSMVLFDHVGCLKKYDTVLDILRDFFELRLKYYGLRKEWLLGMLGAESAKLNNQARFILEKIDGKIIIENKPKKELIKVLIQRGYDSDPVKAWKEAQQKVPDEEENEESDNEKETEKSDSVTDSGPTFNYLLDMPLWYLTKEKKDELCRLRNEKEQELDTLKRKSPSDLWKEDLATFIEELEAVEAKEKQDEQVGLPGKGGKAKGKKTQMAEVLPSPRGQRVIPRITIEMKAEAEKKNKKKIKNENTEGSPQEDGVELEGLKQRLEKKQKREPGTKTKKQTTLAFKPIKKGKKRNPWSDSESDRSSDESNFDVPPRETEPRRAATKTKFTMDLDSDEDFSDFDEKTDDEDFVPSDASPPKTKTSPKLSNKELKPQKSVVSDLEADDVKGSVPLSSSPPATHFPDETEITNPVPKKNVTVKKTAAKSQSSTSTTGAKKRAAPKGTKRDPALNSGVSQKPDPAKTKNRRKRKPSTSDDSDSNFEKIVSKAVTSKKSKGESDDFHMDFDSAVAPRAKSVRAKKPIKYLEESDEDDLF
Procedure: Top2 decatenation assay: Recombinant human Top2a (15 nM) was incubated with 80 ng catenated kinetoplast DNA (Topogen, TG2013) in Top2 reaction buffer (50 mM Tris pH8, 150 mM NaCl, 10 mM MgCl2, 0.5 mM DTT, 30 μg/ml BSA) with 1-100 μM of either doxorubicin, MYCMI-7, ellipticine or camptothecin for 10 minutes at 37° C. Drug dilutions were made in a DMSO/H2O solution so that a final concentration of 1% DMSO was consistent across all samples. The reaction was stopped with the addition of SDS to a final concentration of 1% and the Top2a was digested by Proteinase K at 55° C. for 10 minutes. DNA was purified by phenol:chloroform extraction before running on a 1% agarose gel either containing or post-stained with 0.5 μg/ml ethidium bromide. The decatenated products were quantified, normalised to the Top2α+DMSO control and plotted using GraphPad Prism.
First, we utilized an in vitro TOP2A decatenation assay. TOP2 enzymes decatenate kinetoplast DNA (kDNA) converting a network of interlocking DNA rings into individual rings that can be separated by agarose gel electrophoresis.

[2] = system: NCI-60 human tumor cell lines; assay: NCI-60 GI50 response versus MYC level
Text: “Responsive” and “less responsive”; cell lines with positive and negative log 10 GI50 values, respectively. “Higher MYC” and “lower MYC”; cell lines with higher and lower MYC expression levels (MYC mRNA/protein) than average, respectively.
To investigate whether the levels of MYC expression in tumor cells correlate with growth inhibitory response to MYCMI-7, we utilized GI50 and mRNA expression data from the NCI-60 diverse human tumor cell line panel available for MYCMI-7 by the Developmental Therapeutics Program of the U.S. National Cancer Institute (DTP-NCI). […] The cell lines were categorized as “responsive” or “less responsive” to MYCMI-7 based on average logarithmic GI50 values, as well as the categories “higher MYC” and “lower MYC” based on higher or lower than average MYC mRNA and/or high protein levels.

[3] = oxidative metabolism in mouse liver microsomes
Text: First, we performed a pharmacokinetic study of the behavior of the molecule in mice.

[4] = system: Human neuroblastoma cells; assay: growth/viability of neuroblastoma cells with or without MYCN-amplification; settings: 6.25 μM, 24 hrs
Procedure: Cell proliferation/viability/metabolic activity was measured using the WST-1 assay. B) Human neuroblastoma cells with or without MYCN-amplification where treated with 6.25 μM MYCMI-7 or 64 μM 10058-F4 for 24 hrs. […] For the WST-1 assays the average of three different experiments performed in triplicates is shown.
Cell growth and viability assays: Cell growth and viability was estimated in triplicates with WST-1 (Roche) or Resazurin sodium salt (Sigma-Aldrich) assays in medium at 37° C. and 5% CO2 for 2 hours after which absorbance or fluorescence, respectively, was measured with an Omega Fluostar (BMG Labtech) in a 96 well plate format. Cell viability by the Cyt60 assay was carried out as in manufacturers' protocol.

CCN(CC)CC[n+]1ccc2c(C)c3[nH]c4ccccc4c3c(C)c2c1 [MYCMI-7, 2-(5,11-Dimethyl-6H-25-pyrido[4,3-b]carbazol-2-yl)-N,N-diethylethanamine bromide]
inhibition of MYCN:MAX GLuc interaction (MYCN:MAX interaction): inhibited | growth of three Burkitt's lymphoma cell lines [1]: strongly reduced growth | concentration at which TOP2A inhibition starts (Recombinant human Top2a): higher than 10 μM | concentration of complete TOP2A inhibition (Recombinant human Top2a): 100 µM | correlation between response and MYC mRNA/protein levels ([2]; 60 tumor cell lines): significant correlation | cells with high MYC mRNA/protein level responsive to MYCMI-7 ([2]; NCI-60, GI50 data of DTP-NCI): 79% | cells with low MYC levels less responsive ([2]; NCI-60, GI50 data of DTP-NCI): 63% | stability against oxidative metabolism [3]: stable | effect in MYCN-amplified versus non-amplified neuroblastoma cells [4]: significantly stronger | tumor growth and viability in all neuroblastoma cell lines [4]: reduced tumor growth and viability
